Reference: ChEMBL document CHEMBL1201862, “PubChem BioAssay data set” (2004)
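Cultured in 96-well plates, cells were exposed to test compound for 48 hours across five concentrations. GI50 marks 50% less growth.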 Calls of active or inactive are those of the source. Rule as the data show it: active = GI50 up to about 1.1 µM and inactive = higher.

Columns and labels:
Test in all cases: NCI anticancer screen, dose series, 48 h
TK-10 = tested on: TK-10
UACC-257 = tested on: UACC-257
KM-20L2 = tested on: KM-20L2
SN12C = tested on: SN12C
LOX IMVI = tested on: LOX IMVI
OVCAR-3 = tested on: OVCAR-3
KM12 = tested on: KM12
HL-60 = tested on: HL-60
HCC 2998 = tested on: HCC 2998
LXFL 529 = tested on: LXFL 529
A498 = tested on: A498
MDA-MB-231 = tested on: MDA-MB-231
XF498 = tested on: XF498
HCT-15 = tested on: HCT-15
ACHN = tested on: ACHN
SW-620 = tested on: SW-620
DMS-114 = tested on: DMS-114
RXF 393 = tested on: RXF 393
SF-539 = tested on: SF-539
Hs-578T = tested on: Hs-578T
K562 = tested on: K562
OVCAR-4 = tested on: OVCAR-4
NCI-H460 = tested on: NCI-H460
MDA-N = tested on: MDA-N
PC-3 = tested on: PC-3
M19-MEL = tested on: M19-MEL
SNB-78 = tested on: SNB-78
HOP-92 = tested on: HOP-92
DLD-1 = tested on: DLD-1
RXF 631 = tested on: RXF 631
NCI-H226 = tested on: NCI-H226
OVCAR-8 = tested on: OVCAR-8
RPMI-8226 = tested on: RPMI-8226
NCI-H23 = tested on: NCI-H23
SK-MEL-28 = tested on: SK-MEL-28
SK-OV-3 = tested on: SK-OV-3
DMS-273 = tested on: DMS-273
COLO 205 = tested on: COLO 205
CAKI-1 = tested on: CAKI-1
T47D = tested on: T47D
HT-29 = tested on: HT-29
A549 = tested on: A549
M14 = tested on: M14
CCRF-CEM = tested on: CCRF-CEM
OVCAR-5 = tested on: OVCAR-5
MCF7 = tested on: MCF7
SF-268 = tested on: SF-268
786-0 = tested on: 786-0
UACC-62 = tested on: UACC-62
SR = tested on: SR
DU-145 = tested on: DU-145
HCT-116 = tested on: HCT-116
SNB-75 = tested on: SNB-75
IGROV-1 = tested on: IGROV-1
SF-295 = tested on: SF-295
NCI/ADR-RES = tested on: NCI/ADR-RES
EKVX = tested on: EKVX
Malme-3M = tested on: Malme-3M
SK-MEL-5 = tested on: SK-MEL-5
U-251 = tested on: U-251
MOLT-4 = tested on: MOLT-4
MDA-MB-435 = tested on: MDA-MB-435
SNB-19 = tested on: SNB-19
BT-549 = tested on: BT-549
NCI-H522 = tested on: NCI-H522
HOP-62 = tested on: HOP-62
UO-31 = tested on: UO-31
HOP-18 = tested on: HOP-18
SK-MEL-2 = tested on: SK-MEL-2

## C=C(CCCCCCCCC)CC(=O)SCCNC(=O)CCNC(=O)C(O)C(C)(C)COP(=O)(O)OP(=O)(O)OCC1OC(n2cnc3c(N)ncnc32)C(O)C1OP(=O)(O)O (centres undefined)
TK-10
  GI50: > 100 µM (inactive)
UACC-257
  GI50: 48.1 µM (inactive)
KM-20L2
  GI50: > 100 µM (inactive)
SN12C
  GI50: > 84.3 µM (inactive)
LOX IMVI
  GI50: 38.3 µM (inactive)
OVCAR-3
  GI50: 77.8 µM (inactive)
KM12
  GI50: 52.6 µM (inactive)
HL-60
  GI50: 36.1 µM (inactive)
HCC 2998
  GI50: 52.8 µM (inactive)
LXFL 529
  GI50: 56.2 µM (inactive)
A498
  GI50: > 100 µM (inactive)
MDA-MB-231
  GI50: > 77.8 µM (inactive)
XF498
  GI50: 50 µM (inactive)
HCT-15
  GI50: 50.1 µM
ACHN
  GI50: > 100 µM (inactive)
SW-620
  GI50: > 100 µM (inactive)
DMS-114
  GI50: 55.3 µM (inactive)
RXF 393
  GI50: > 71.1 µM (inactive)
SF-539
  GI50: 51.3 µM (inactive)
Hs-578T
  GI50: > 64.4 µM (inactive)
K562
  GI50: > 31.6 µM (inactive)
OVCAR-4
  GI50: 60.4 µM (inactive)
NCI-H460
  GI50: 35.4 µM (inactive)
MDA-N
  GI50: 32.1 µM (inactive)
PC-3
  GI50: 56.4 µM (inactive)
M19-MEL
  GI50: 29.8 µM (inactive)
SNB-78
  GI50: 25.5 µM (inactive)
HOP-92
  GI50: 75.5 µM (inactive)
DLD-1
  GI50: 42.9 µM (inactive)
RXF 631
  GI50: 55.2 µM (inactive)
NCI-H226
  GI50: > 100 µM (inactive)
OVCAR-8
  GI50: 58.2 µM (inactive)
RPMI-8226
  GI50: 23.8 µM (inactive)
NCI-H23
  GI50: > 100 µM (inactive)
SK-MEL-28
  GI50: 10.4 µM (inactive)
SK-OV-3
  GI50: > 100 µM (inactive)
DMS-273
  GI50: 21 µM (inactive)
COLO 205
  GI50: > 100 µM (inactive)
CAKI-1
  GI50: > 100 µM (inactive)
T47D
  GI50: > 76.9 µM (inactive)
HT-29
  GI50: 68.2 µM (inactive)
A549
  GI50: > 92.5 µM (inactive)
M14
  GI50: 25.5 µM (inactive)
CCRF-CEM
  GI50: > 70.6 µM (inactive)
OVCAR-5
  GI50: > 100 µM (inactive)
MCF7
  GI50: > 87.5 µM (inactive)
SF-268
  GI50: 8.73 µM (inactive)
786-0
  GI50: 69.5 µM (inactive)
UACC-62
  GI50: 21.1 µM (inactive)
SR
  GI50: 36.4 µM (inactive)
DU-145
  GI50: > 100 µM (inactive)
HCT-116
  GI50: 45.5 µM (inactive)
SNB-75
  GI50: 30 µM (inactive)
IGROV-1
  GI50: 98.2 µM (inactive)
SF-295
  GI50: 57.4 µM (inactive)
NCI/ADR-RES
  GI50: > 100 µM (inactive)
EKVX
  GI50: 51.2 µM (inactive)
Malme-3M
  GI50: > 100 µM (inactive)
SK-MEL-5
  GI50: 31.6 µM (inactive)
U-251
  GI50: 49.9 µM (inactive)
MOLT-4
  GI50: > 57.1 µM (inactive)
MDA-MB-435
  GI50: 26.6 µM (inactive)
SNB-19
  GI50: > 71.6 µM (inactive)
BT-549
  GI50: > 60.8 µM (inactive)
NCI-H522
  GI50: 11.8 µM (inactive)
HOP-62
  GI50: 40.9 µM (inactive)
UO-31
  GI50: 99.1 µM (inactive)
HOP-18
  GI50: 29.4 µM (inactive)
SK-MEL-2
  GI50: 60.8 µM (inactive)
